Measurements from ChEMBL document CHEMBL2202954, “The effect of PLC-γ2 inhibitors on the growth of human tumour cells” (2012).

Experiments:
Type in all cases: functional
SK-MEL-28 = assay: Cytotoxicity against human SK-MEL-28 cells assessed as cellular growth at 10 uM by SRB assay
SK-MEL-5 = assay: Cytotoxicity against human SK-MEL-5 cells assessed as cellular growth at 10 uM by SRB assay
NCI-H322M = assay: Cytotoxicity against human NCI-H322M cells assessed as cellular growth at 10 uM by SRB assay
SF-539 = assay: Cytotoxicity against human SF539 cells assessed as cellular growth at 10 uM by SRB assay
MDA-MB-231 = assay: Cytotoxicity against human MDA-MB-231 cells assessed as cellular growth at 10 uM by SRB assay
A549 = assay: Cytotoxicity against human A549 cells assessed as cellular growth at 10 uM by SRB assay
MCF7 = assay: Cytotoxicity against human MCF7 cells assessed as cellular growth at 10 uM by SRB assay
SW-620 = assay: Cytotoxicity against human SW620 cells assessed as cellular growth at 10 uM by SRB assay
NCI-H226 = assay: Cytotoxicity against human NCI-H226 cells assessed as cellular growth at 10 uM by SRB assay
HCT-116 = assay: Cytotoxicity against human HCT116 cells assessed as cellular growth at 10 uM by SRB assay
[1] = Cytotoxicity against human NCI-ADR-RES cells assessed as cellular growth at 10 uM by SRB assay
SF-295 = assay: Cytotoxicity against human SF295 cells assessed as cellular growth at 10 uM by SRB assay
MDA-MB-435 = assay: Cytotoxicity against human MDA-MB-435 cells assessed as cellular growth at 10 uM by SRB assay
UO-31 = assay: Cytotoxicity against human UO31 cells assessed as cellular growth at 10 uM by SRB assay
K562 = assay: Cytotoxicity against human K562 cells assessed as cellular growth at 10 uM by SRB assay
TK-10 = assay: Cytotoxicity against human TK10 cells assessed as cellular growth at 10 uM by SRB assay
KM12 = assay: Cytotoxicity against human KM12 cells assessed as cellular growth at 10 uM by SRB assay
BT-549 = assay: Cytotoxicity against human BT549 cells assessed as cellular growth at 10 uM by SRB assay
Malme-3M = assay: Cytotoxicity against human MALME-3M cells assessed as cellular growth at 10 uM by SRB assay
CAKI-1 = assay: Cytotoxicity against human Caki1 cells assessed as cellular growth at 10 uM by SRB assay
MOLT-4 = assay: Cytotoxicity against human MOLT4 cells assessed as cellular growth at 10 uM by SRB assay
RPMI-8226 = assay: Cytotoxicity against human RPMI8226 cells assessed as cellular growth at 10 uM by SRB assay
NCI-H23 = assay: Cytotoxicity against human NCI-H23 cells assessed as cellular growth at 10 uM by SRB assay
PC-3 = assay: Cytotoxicity against human PC3 cells assessed as cellular growth at 10 uM by SRB assay
CCRF-CEM = assay: Cytotoxicity against human CCRF-CEM cells assessed as cellular growth at 10 uM by SRB assay
HT-29 = assay: Cytotoxicity against human HT-29 cells assessed as cellular growth at 10 uM by SRB assay
OVCAR-3 = assay: Cytotoxicity against human OVCAR3 cells assessed as cellular growth at 10 uM by SRB assay
T47D = assay: Cytotoxicity against human T47D cells assessed as cellular growth at 10 uM by SRB assay
OVCAR-8 = assay: Cytotoxicity against human OVCAR8 cells assessed as cellular growth at 10 uM by SRB assay
M14 = assay: Cytotoxicity against human M14 cells assessed as cellular growth at 10 uM by SRB assay
A498 = assay: Cytotoxicity against human A498 cells assessed as cellular growth at 10 uM by SRB assay
SK-MEL-2 = assay: Cytotoxicity against human SK-MEL-2 cells assessed as cellular growth at 10 uM by SRB assay
DU-145 = assay: Cytotoxicity against human DU145 cells assessed as cellular growth at 10 uM by SRB assay
HCT-15 = assay: Cytotoxicity against human HCT15 cells assessed as cellular growth at 10 uM by SRB assay
RXF 393 = assay: Cytotoxicity against human RXF393 cells assessed as cellular growth at 10 uM by SRB assay
COLO 205 = assay: Cytotoxicity against human COLO205 cells assessed as cellular growth at 10 uM by SRB assay
SNB-75 = assay: Cytotoxicity against human SNB75 cells assessed as cellular growth at 10 uM by SRB assay
UACC-62 = assay: Cytotoxicity against human UACC62 cells assessed as cellular growth at 10 uM by SRB assay
MDA-MB-468 = assay: Cytotoxicity against human MDA-MB-468 cells assessed as cellular growth at 10 uM by SRB assay
SF-268 = assay: Cytotoxicity against human SF268 cells assessed as cellular growth at 10 uM by SRB assay
Hs-578T = assay: Cytotoxicity against human Hs578T cells assessed as cellular growth at 10 uM by SRB assay
NCI-H460 = assay: Cytotoxicity against human NCI-H460 cells assessed as cellular growth at 10 uM by SRB assay
HCC 2998 = assay: Cytotoxicity against human HCC2998 cells assessed as cellular growth at 10 uM by SRB assay
SNB-19 = assay: Cytotoxicity against human SNB19 cells assessed as cellular growth at 10 uM by SRB assay
EKVX = assay: Cytotoxicity against human EKVX cells assessed as cellular growth at 10 uM by SRB assay
UACC-257 = assay: Cytotoxicity against human UACC257 cells assessed as cellular growth at 10 uM by SRB assay
ACHN = assay: Cytotoxicity against human ACHN cells assessed as cellular growth at 10 uM by SRB assay
NCI-H522 = assay: Cytotoxicity against human NCI-H522 cells assessed as cellular growth at 10 uM by SRB assay
786-0 = assay: Cytotoxicity against human 786-0 cells assessed as cellular growth at 10 uM by SRB assay
SR = assay: Cytotoxicity against human SR cells assessed as cellular growth at 10 uM by SRB assay
HL-60(TB) = assay: Cytotoxicity against human HL-60(TB) cells assessed as cellular growth at 10 uM by SRB assay
SN12C = assay: Cytotoxicity against human SN12C cells assessed as cellular growth at 10 uM by SRB assay
OVCAR-5 = assay: Cytotoxicity against human OVCAR5 cells assessed as cellular growth at 10 uM by SRB assay
HOP-62 = assay: Cytotoxicity against human HOP62 cells assessed as cellular growth at 10 uM by SRB assay
LOX IMVI = assay: Cytotoxicity against human LOXIMVI cells assessed as cellular growth at 10 uM by SRB assay
U-251 = assay: Cytotoxicity against human U251 cells assessed as cellular growth at 10 uM by SRB assay
SK-OV-3 = assay: Cytotoxicity against human SKOV3 cells assessed as cellular growth at 10 uM by SRB assay
IGROV-1 = assay: Cytotoxicity against human IGROV1 cells assessed as cellular growth at 10 uM by SRB assay

O=C(Nc1nc2ccc(Cl)cc2s1)c1ccc(Cl)cc1Cl
Activity (SK-MEL-28): 107.5% | Activity (SK-MEL-5): 89.76% | Activity (NCI-H322M): 105.38% | Activity (SF-539): 101.57% | Activity (MDA-MB-231): 114.66% | Activity (A549): 95.4% | Activity (MCF7): 98.4% | Activity (SW-620): 111.18% | Activity (NCI-H226): 101.52% | Activity (HCT-116): 105.32% | Activity [1]: 98.55% | Activity (SF-295): 76.92% | Activity (MDA-MB-435): 94.59% | Activity (UO-31): 101% | Activity (K562): 86.31% | Activity (TK-10): 88.34% | Activity (KM12): 110.91% | Activity (BT-549): 111.68% | Activity (Malme-3M): 109.41% | Activity (CAKI-1): 79.85% | Activity (MOLT-4): 93.88% | Activity (RPMI-8226): 91.09% | Activity (NCI-H23): 99% | Activity (PC-3): 97.1% | Activity (CCRF-CEM): 99.34% | Activity (HT-29): 94.25% | Activity (OVCAR-3): 109.17% | Activity (T47D): 95.96% | Activity (OVCAR-8): 97.79% | Activity (M14): 115.13% | Activity (A498): 93.8% | Activity (SK-MEL-2): 116.07% | Activity (DU-145): 108.4% | Activity (HCT-15): 100.27% | Activity (RXF 393): 112.15% | Activity (COLO 205): 114.96% | Activity (SNB-75): 114.42% | Activity (UACC-62): 96.19% | Activity (MDA-MB-468): 105.42% | Activity (SF-268): 111.47% | Activity (Hs-578T): 113.99% | Activity (NCI-H460): 100.4% | Activity (HCC 2998): 97.08% | Activity (SNB-19): 109.5% | Activity (EKVX): 82.69% | Activity (UACC-257): 95.43% | Activity (ACHN): 109.65% | Activity (NCI-H522): 98.66% | Activity (786-0): 95.62% | Activity (SR): 98.17% | Activity (HL-60(TB)): 92.55% | Activity (SN12C): 113.76% | Activity (OVCAR-5): 98.11% | Activity (HOP-62): 106.54% | Activity (LOX IMVI): 98.46% | Activity (U-251): 93.57% | Activity (SK-OV-3): 105.26% | Activity (IGROV-1): 103.26%

COc1cccc(C(=O)Nc2nc3ccc(Cl)cc3s2)c1
Activity (SK-MEL-28): 101.98% | Activity (SK-MEL-5): 81.61% | Activity (NCI-H322M): 104.25% | Activity (SF-539): 101.47% | Activity (MDA-MB-231): 95.48% | Activity (A549): 74.01% | Activity (MCF7): 85.29% | Activity (SW-620): 88.38% | Activity (NCI-H226): 93.47% | Activity (HCT-116): 92.95% | Activity [1]: 75.07% | Activity (SF-295): 67.73% | Activity (MDA-MB-435): 34% | Activity (UO-31): 92.38% | Activity (K562): 49% | Activity (TK-10): 88.7% | Activity (KM12): 49.84% | Activity (BT-549): 101.44% | Activity (Malme-3M): 95.69% | Activity (CAKI-1): 68.42% | Activity (MOLT-4): 83.68% | Activity (RPMI-8226): 84.4% | Activity (NCI-H23): 81.36% | Activity (PC-3): 78.16% | Activity (CCRF-CEM): 81.01% | Activity (HT-29): 80.12% | Activity (OVCAR-3): 100.09% | Activity (T47D): 79.7% | Activity (OVCAR-8): 98.65% | Activity (M14): 102.54% | Activity (A498): 86.56% | Activity (SK-MEL-2): 108.68% | Activity (DU-145): 104.09% | Activity (HCT-15): 71.29% | Activity (RXF 393): 102.21% | Activity (COLO 205): 105.5% | Activity (SNB-75): 109.63% | Activity (UACC-62): 87.44% | Activity (MDA-MB-468): 61.26% | Activity (SF-268): 106.92% | Activity (Hs-578T): 110.55% | Activity (NCI-H460): 87.74% | Activity (HCC 2998): 93.56% | Activity (SNB-19): 113.6% | Activity (EKVX): 81.47% | Activity (UACC-257): 94.74% | Activity (ACHN): 91.34% | Activity (NCI-H522): 78.29% | Activity (786-0): 98.19% | Activity (SR): 61.65% | Activity (HL-60(TB)): 68.73% | Activity (SN12C): 101.74% | Activity (OVCAR-5): 108.78% | Activity (HOP-62): 104.17% | Activity (LOX IMVI): 94.46% | Activity (U-251): 87.76% | Activity (SK-OV-3): 90.86% | Activity (IGROV-1): 74.3%
